Source: ChEMBL document CHEMBL1201862, “PubChem BioAssay data set” (2004)
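Briefly, cells in 96-well plates were exposed to five compound concentrations for 48 h, and endpoints were estimated by linear interpolation. Abbreviation: GI50, concentration required for 50% inhibition of growth.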 The source made the active and inactive calls. Cut-off read from the data, not from the text of the source: active = GI50 up to about 1.1 µM and inactive = higher.

How the values were obtained:
Assay in all cases: inhibition of tumour cell growth, NCI panel, 48 h
[1] = system: A549
[2] = system: CCRF-CEM
[3] = system: COLO 205
[4] = system: HL-60
[5] = system: HT-29
[6] = system: K562
[7] = system: KM12
[8] = system: LOX IMVI
[9] = system: OVCAR-3
[10] = system: SK-MEL-5
[11] = system: SK-OV-3
[12] = system: SNB-19
[13] = system: SNB-75
[14] = system: SR
[15] = system: SW-620
[16] = system: U-251
[17] = system: UO-31
[18] = system: CAKI-1
[19] = system: NCI-H522
[20] = system: OVCAR-8

Measured: GI50

COC(=O)/C=C/c1cnc2c(c1)oc(=O)n2CCc1ccccn1
inactive: [1] > 100 µM | [2] 31.6 µM | [3] > 100 µM | [4] 1.35 µM | [5] > 100 µM | [6] 73.3 µM | [7] > 100 µM | [8] > 100 µM | [9] > 100 µM | [10] 59.6 µM | [11] > 100 µM | [12] > 100 µM | [13] > 100 µM | [14] 30.8 µM | [15] 92 µM | [16] > 100 µM | [17] > 100 µM

COc1ccc(-c2ccc(CC(=O)O)cc2)cc1OC
inactive: [1] > 100 µM | [18] > 100 µM | [2] > 100 µM | [3] > 100 µM | [4] > 100 µM | [5] > 100 µM | [6] > 100 µM | [7] > 100 µM | [19] > 100 µM | [9] > 100 µM | [20] > 100 µM | [10] > 100 µM | [11] > 100 µM | [12] > 100 µM | [13] 97.5 µM | [14] > 100 µM | [15] > 100 µM | [16] > 100 µM | [17] > 100 µM

COc1ccc(CCn2cnc3ccccc32)cc1
inactive: [1] > 100 µM | [18] > 100 µM | [2] > 100 µM | [3] > 100 µM | [4] > 100 µM | [5] > 100 µM | [6] > 100 µM | [7] > 100 µM | [19] > 100 µM | [9] > 100 µM | [20] > 100 µM | [10] > 100 µM | [11] > 100 µM | [12] > 100 µM | [13] > 100 µM | [14] > 100 µM | [15] > 100 µM | [16] > 100 µM | [17] > 100 µM

C(=N\c1ccc(-c2cc(-c3ccccc3)nc3ccc4ccccc4c23)cc1)/c1ccccc1
inactive: [1] 13.6 µM | [18] 23.3 µM | [2] 16 µM | [3] 13.6 µM | [4] 9.48 µM | [5] 7.87 µM | [6] 4.79 µM | [7] 10.8 µM | [8] 19.9 µM | [9] 20.4 µM | [20] 26 µM | [10] 17.4 µM | [11] 30.3 µM | [12] 18.5 µM | [13] 1.18 µM | [14] 10.2 µM | [15] 26.2 µM | [16] 36.5 µM | [17] 15.9 µM

NC(=O)Cc1nc2c(N)ncnc2n1C1OC(CO)C(O)C1O (stereo not given)
inactive: [1] > 100 µM | [18] > 100 µM | [2] > 100 µM | [3] > 100 µM | [4] > 100 µM | [5] > 100 µM | [6] > 100 µM | [7] > 100 µM | [8] > 100 µM | [19] > 100 µM | [9] > 100 µM | [20] > 100 µM | [10] > 100 µM | [11] > 100 µM | [12] > 100 µM | [14] > 100 µM | [15] > 100 µM | [16] > 100 µM | [17] > 100 µM

COC(=O)CCc1ccc2c(c1)[C@H](C(=O)OC)[C@@H](c1ccc(O)cc1)O2
inactive: [1] > 100 µM | [18] > 100 µM | [2] 59.2 µM | [3] > 100 µM | [4] 90.2 µM | [5] > 100 µM | [6] 61.1 µM | [7] > 100 µM | [8] > 100 µM | [19] 75.9 µM | [9] > 100 µM | [20] > 100 µM | [10] 40.1 µM | [11] > 100 µM | [12] > 100 µM | [14] 93.5 µM | [15] > 100 µM | [16] > 100 µM | [17] > 100 µM

CCCCCCCCCCCCCCCCCCC1=C(O)C(=O)C=C(OC)C1=O
inactive: [1] 46.8 µM | [18] 39.5 µM | [3] 48.5 µM | [4] 22.5 µM | [5] 88.9 µM | [7] 35.2 µM | [19] 28.4 µM | [9] 41.8 µM | [20] 32.4 µM | [10] 40 µM | [11] > 100 µM | [12] 61.4 µM | [13] 30.6 µM | [14] 43.8 µM | [15] 51.4 µM | [16] 39 µM | [17] 85.5 µM

COc1ccc(C(=O)OCC2OC(n3cnc4c(=S)nc[nH]c43)C(OC(=O)c3ccc(OC)cc3)C2OC(=O)c2ccc(OC)cc2)cc1 (stereo not given)
inactive: [1] > 100 µM | [18] 48.6 µM | [2] 8.47 µM | [3] > 100 µM | [4] 26.2 µM | [5] 24.9 µM | [6] 3.27 µM | [7] 45.6 µM | [19] 7 µM | [9] 5.06 µM | [20] 28.5 µM | [10] 69.2 µM | [12] > 100 µM | [13] 7.52 µM | [14] 14 µM | [15] 46.9 µM | [16] > 100 µM | [17] 55.1 µM

O=C(/C=C/c1cccs1)c1ccc(C(=O)/C=C/c2cccs2)cc1
inactive: [1] > 100 µM | [18] > 100 µM | [3] > 100 µM | [5] > 100 µM | [7] > 100 µM | [19] > 100 µM | [9] > 100 µM | [20] > 100 µM | [11] > 100 µM | [12] > 100 µM | [13] > 100 µM | [14] > 100 µM | [15] > 100 µM | [16] > 100 µM | [17] > 100 µM

CC(C)[C@@H](C)CC[C@@H](C)C1CC=C2[C@@H]3CCC4C[C@@H](O[Si](C)(C)C(C)(C)C)CC[C@]4(C)C3CC[C@@]21C (stereo not given in full)
inactive: [1] > 100 µM | [18] > 100 µM | [2] > 100 µM | [3] > 100 µM | [4] > 100 µM | [6] > 100 µM | [7] > 100 µM | [19] > 100 µM | [9] > 100 µM | [20] > 100 µM | [10] > 100 µM | [11] > 100 µM | [12] > 100 µM | [13] > 100 µM | [14] > 100 µM | [15] > 100 µM | [16] > 100 µM | [17] > 100 µM

CCC1=C(C(C)=O)[C@@H]2CCCCC[C@@H](C(=O)OC)C2C1=O (stereo not given in full)
inactive: [1] > 100 µM | [18] > 100 µM | [2] > 100 µM | [3] > 100 µM | [4] > 100 µM | [5] > 100 µM | [6] > 100 µM | [7] > 100 µM | [19] > 100 µM | [20] > 100 µM | [10] > 100 µM | [11] > 100 µM | [12] > 100 µM | [13] > 100 µM | [14] > 100 µM | [15] > 100 µM | [16] > 100 µM | [17] > 100 µM

CCOC(=O)C(=O)Nc1cc(Cl)ccc1Cl
inactive: [1] > 100 µM | [18] > 100 µM | [2] > 100 µM | [3] > 100 µM | [4] > 100 µM | [5] > 100 µM | [6] > 100 µM | [7] > 100 µM | [19] > 100 µM | [9] > 100 µM | [20] > 100 µM | [10] > 100 µM | [11] > 100 µM | [12] > 100 µM | [13] 34.2 µM | [14] > 100 µM | [15] > 100 µM | [16] > 100 µM | [17] > 100 µM

C#CCCCC(=C)C[C@H](OCc1ccccc1)[C@H]1OC(=O)[C@@H]1C
inactive: [1] 56.4 µM | [18] 14.9 µM | [2] > 100 µM | [4] 66.1 µM | [7] 39 µM | [9] 31.3 µM | [20] 31.8 µM | [11] > 100 µM | [12] > 100 µM | [13] > 100 µM | [14] 44.5 µM | [15] > 100 µM | [16] > 100 µM | [17] 23.9 µM

CCCCCCCC(=O)OC[C@@H](C[As](=O)(O)O)OC(=O)CCCCCCC
inactive: [1] 3.73 µM | [2] 1.88 µM | [3] 17.8 µM | [4] 2.98 µM | [5] 14.1 µM | [6] 13.8 µM | [19] 1.56 µM | [20] 13.5 µM | [10] 13.9 µM | [11] 14.6 µM | [12] 14.2 µM | [13] 11.5 µM | [14] 4.95 µM | [15] 12.9 µM | [16] 5.74 µM | [17] 2.59 µM

CC(C)c1cccc2sc(NC(=O)C(=O)C(C#N)c3cccc4ccccc34)nc12 (stereo not given)
inactive: [1] 80.7 µM | [18] 30.5 µM | [2] 41.8 µM | [3] > 100 µM | [4] 30.5 µM | [5] 77.4 µM | [7] > 100 µM | [19] 54.1 µM | [9] 41.7 µM | [20] 72.1 µM | [10] 68.1 µM | [11] 48.4 µM | [12] > 100 µM | [13] 23.4 µM | [14] 32.4 µM | [15] > 100 µM | [16] 57.5 µM | [17] 31.4 µM
